Key:
mouse SLC26A6b = target: T1, mouse SLC26A6b (Mus musculus, UniProt Q8CIW6, R572P); experiment: Radiolabelled anion uptake/exchange in Xenopus oocytes expressing mouse SLC26A6b; type: cell-based
T1 construct: Full-length mouse SLC26A6b and SLC26A 1 cDNAs were cloned into the Xenopus expression vector pGEMHE; expressed in transfected cells; host or cells: Xenopus laevis oocytes injected with in vitro transcribed cRNA (pGEMHE)
T1 sequence (Q8CIW6 24-758 R572P limits assumed): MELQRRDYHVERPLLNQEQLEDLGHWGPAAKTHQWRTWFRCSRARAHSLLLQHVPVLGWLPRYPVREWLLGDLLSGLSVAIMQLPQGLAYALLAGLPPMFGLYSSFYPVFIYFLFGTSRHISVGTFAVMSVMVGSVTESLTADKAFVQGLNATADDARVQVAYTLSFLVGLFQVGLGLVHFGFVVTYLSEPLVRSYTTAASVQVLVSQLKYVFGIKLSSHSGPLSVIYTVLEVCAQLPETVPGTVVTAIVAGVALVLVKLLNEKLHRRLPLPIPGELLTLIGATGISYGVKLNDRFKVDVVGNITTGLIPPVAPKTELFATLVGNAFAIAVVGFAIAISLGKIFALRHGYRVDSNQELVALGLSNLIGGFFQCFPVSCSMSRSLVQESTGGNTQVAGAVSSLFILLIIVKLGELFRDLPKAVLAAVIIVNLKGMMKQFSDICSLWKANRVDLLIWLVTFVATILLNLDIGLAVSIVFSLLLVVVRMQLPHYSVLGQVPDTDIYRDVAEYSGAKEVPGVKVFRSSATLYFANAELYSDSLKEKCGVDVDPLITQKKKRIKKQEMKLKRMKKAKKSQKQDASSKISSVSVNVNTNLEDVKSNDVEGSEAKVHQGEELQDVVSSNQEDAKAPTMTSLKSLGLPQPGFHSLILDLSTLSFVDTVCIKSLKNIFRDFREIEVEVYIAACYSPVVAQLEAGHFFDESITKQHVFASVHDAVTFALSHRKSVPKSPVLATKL
Experimental: (§1) Full-length mouse SLC26A6b and SLC26A 1 cDNAs were cloned into the Xenopus expression vector pGEMHE (Liman et al., 1992). The SLC26A6 and SLC26A1 expression constructs were linearized, and cRNA was transcribed in vitro using T7 RNA polymerase and a […] MMACHINE® transcription kit (Ambion, Inc. of Austin, Tex., United States of America). Defolliculated oocytes were injected with 25 nl to 50 nl of water or with a solution containing cRNA at a concentration of 0.5 μg/μl (12.5 ng to 25 ng per oocyte) using a Nanoliter-2000 injector (WPI Instruments of Sarasota, Fla., United States of America). Oocytes were incubated at 17° C. in 50% Leibovitz's L-15 media supplemented with penicillin/streptomycin (1000 units/ml) and glutamine for 2-3 days for uptake assays.
(§2) For sulphate uptake assays, oocytes were pre-incubated for 20 minutes in chloride-free uptake medium (100 mM NMDG gluconate, 2 mM potassium gluconate, 1 mM calcium gluconate, 1 mM magnesium gluconate, 10 mM HEPES-Tris, pH 6.0 or pH 7.5 as indicated), followed by a 60-minute period for uptake in the same medium supplemented with 1 mM K2^35SO4 (40 μCi/ml). The cells were then washed three times in uptake buffer with 5 mM cold K2SO4 to remove tracer activity in the extracellular fluid. The oocytes were dissolved individually in 10% SDS, and tracer activity was determined by scintillation counting. Uptake of chloride, formate, and oxalate was assayed using the same chloride-free uptake solutions, substituting 8.3 mM ^36Cl, 500 μM [^14C]oxalate, or 50 μM [^14C]formate for labeled sulphate.
(§3) For sulphate exchange and cis-inhibition experiments, the concentration of NMDG-gluconate in the uptake solution was adjusted to maintain isotonic osmolality, which was confirmed experimentally using a FISKE® osmometer (Fiske Associates, Inc. of Bethel, Conn., United States of America).

mouse SLC26A1 = target: T2, mouse SLC26A1 (Mus musculus, UniProt P58735, C691Y); experiment: Radiolabelled anion uptake in Xenopus oocytes expressing mouse SLC26A1; type: cell-based
T2 construct: Full-length mouse SLC26A6b and SLC26A 1 cDNAs were cloned into the Xenopus expression vector pGEMHE; expressed in transfected cells; host or cells: Xenopus laevis oocytes injected with in vitro transcribed cRNA (pGEMHE)
T2 sequence (P58735 1-704 C691Y): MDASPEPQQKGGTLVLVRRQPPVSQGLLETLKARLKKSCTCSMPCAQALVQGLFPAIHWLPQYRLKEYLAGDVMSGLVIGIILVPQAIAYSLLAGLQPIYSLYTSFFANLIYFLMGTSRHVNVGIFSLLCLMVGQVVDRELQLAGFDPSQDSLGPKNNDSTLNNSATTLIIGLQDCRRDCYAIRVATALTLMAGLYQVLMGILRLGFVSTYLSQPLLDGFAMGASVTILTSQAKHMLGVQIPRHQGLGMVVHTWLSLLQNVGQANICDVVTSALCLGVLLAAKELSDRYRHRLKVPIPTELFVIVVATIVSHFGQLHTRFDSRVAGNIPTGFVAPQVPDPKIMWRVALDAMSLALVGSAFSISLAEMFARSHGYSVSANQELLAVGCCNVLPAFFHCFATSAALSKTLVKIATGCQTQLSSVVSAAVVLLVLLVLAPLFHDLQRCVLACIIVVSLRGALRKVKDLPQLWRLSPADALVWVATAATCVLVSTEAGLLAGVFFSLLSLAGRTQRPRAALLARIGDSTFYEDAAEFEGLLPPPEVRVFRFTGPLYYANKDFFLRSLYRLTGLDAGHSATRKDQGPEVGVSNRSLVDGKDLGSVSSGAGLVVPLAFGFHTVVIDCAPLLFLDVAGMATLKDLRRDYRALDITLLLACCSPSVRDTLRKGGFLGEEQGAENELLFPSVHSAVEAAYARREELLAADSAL
Experimental: as §1, §2, §3

Question: What does the source list for `O=C(O)C(=O)O` [oxalate]?
Answer: oxalate uptake (mouse SLC26A6b; 500 μM [14C]oxalate (FIG. 8A)): 487±50 pmol/oocyte/hour; exchange of SO4 2− with extracellular anion (trans-stimulation of 35SO4 efflux) (mouse SLC26A6b; 10 mM of the anion, 30 minutes (FIG. 7C)): clearly mediated exchange; effect of extracellular anion on SO4 2− transport via SLC26A1 (mouse SLC26A1; 25 mM of the anion (FIG. 9A, 6C)): strongly cis-inhibitory; oxalate uptake (mouse SLC26A1; SLC26A1-injected oocytes (FIG. 8A)): 72±2 pmol/oocyte/h

Source: patent US20060014940A1, “Cloning and characterization of slc26a6, slc26a1, and slc26a2 anion exchangers” (priority 2002, published 2006)
